Reference: ChEMBL document CHEMBL5055675, “Apoptosis Inducing 1,3,4-Oxadiazole Conjugates of Capsaicin: Their In Vitro Antiproliferative and In Silico Studies” (ACS Med Chem Lett, 2021)

Tests used:
Type in all cases: functional
[1] = system: HL-60(TB); assay: Antiproliferative activity against human HL-60 (TB) cells assessed as cell growth at 10 uM incubated for 48 hrs by sulforhodamine B assay relative to control; settings: read-out: Activity
[2] = system: SF-295; assay: Antiproliferative activity against human SF-295 cells assessed as cell growth at 10 uM incubated for 48 hrs by sulforhodamine B assay relative to control; settings: read-out: Activity
[3] = system: OVCAR-8; assay: Antiproliferative activity against human OVCAR-8 cells assessed as cell growth at 10 uM incubated for 48 hrs by sulforhodamine B assay relative to control; settings: read-out: Activity
[4] = system: SK-MEL-2; assay: Antiproliferative activity against human SK-MEL-2 cells assessed as cell growth at 10 uM incubated for 48 hrs by sulforhodamine B assay relative to control; settings: read-out: Activity
[5] = system: DU-145; assay: Antiproliferative activity against human DU-145 cells assessed as cell growth at 10 uM incubated for 48 hrs by sulforhodamine B assay relative to control; settings: read-out: Activity
[6] = system: OVCAR-5; assay: Antiproliferative activity against human OVCAR-5 cells assessed as cell growth at 10 uM incubated for 48 hrs by sulforhodamine B assay relative to control; settings: read-out: Activity
[7] = system: MDA-MB-231; assay: Antiproliferative activity against human MDA-MB-231/ATCC cells assessed as cell growth at 10 uM incubated for 48 hrs by sulforhodamine B assay relative to control; settings: read-out: Activity
[8] = system: MDA-MB-468; assay: Antiproliferative activity against human MDA-MB-468 cells assessed as cell growth at 10 uM incubated for 48 hrs by sulforhodamine B assay relative to control; settings: read-out: Activity
[9] = system: SK-MEL-28; assay: Antiproliferative activity against human SK-MEL-28 cells assessed as cell growth at 10 uM incubated for 48 hrs by sulforhodamine B assay relative to control; settings: read-out: Activity
[10] = system: SW-620; assay: Antiproliferative activity against human SW-620 cells assessed as cell growth at 10 uM incubated for 48 hrs by sulforhodamine B assay relative to control; settings: read-out: Activity
[11] = system: UO-31; assay: Antiproliferative activity against human UO-31 cells assessed as cell growth at 10 uM incubated for 48 hrs by sulforhodamine B assay relative to control; settings: read-out: Activity
[12] = system: K562; assay: Antiproliferative activity against human K562 cells assessed as cell growth at 10 uM incubated for 48 hrs by sulforhodamine B assay relative to control; settings: read-out: Activity
[13] = system: SNB-19; assay: Antiproliferative activity against human SNB-19 cells assessed as cell growth at 10 uM incubated for 48 hrs by sulforhodamine B assay relative to control; settings: read-out: Activity
[14] = system: SF-539; assay: Antiproliferative activity against human SF-539 cells assessed as cell growth at 10 uM incubated for 48 hrs by sulforhodamine B assay relative to control; settings: read-out: Activity
[15] = system: HCT-116; assay: Antiproliferative activity against human HCT-116 cells assessed as cell growth at 10 uM incubated for 48 hrs by sulforhodamine B assay relative to control; settings: read-out: Activity
[16] = system: HCT-116; assay: Antiproliferative activity against human HCT-116 cells assessed as cell growth inhibition measured after 72 hrs by crystal violet staining based assay; settings: HCT-116, 72 h
[17] = system: A498; assay: Antiproliferative activity against human A498 cells assessed as cell growth at 10 uM incubated for 48 hrs by sulforhodamine B assay relative to control; settings: read-out: Activity
[18] = system: U-251; assay: Antiproliferative activity against human U-251 cells assessed as cell growth at 10 uM incubated for 48 hrs by sulforhodamine B assay relative to control; settings: read-out: Activity
[19] = system: MCF7; assay: Antiproliferative activity against human MCF7 cells assessed as cell growth at 10 uM incubated for 48 hrs by sulforhodamine B assay relative to control; settings: read-out: Activity
[20] = system: IGROV-1; assay: Antiproliferative activity against human IGROV-1 cells assessed as cell growth at 10 uM incubated for 48 hrs by sulforhodamine B assay relative to control; settings: read-out: Activity
[21] = system: NCI-H322M; assay: Antiproliferative activity against human NCI-H322M cells assessed as cell growth at 10 uM incubated for 48 hrs by sulforhodamine B assay relative to control; settings: read-out: Activity
[22] = system: HT-29; assay: Antiproliferative activity against human HT-29 cells assessed as cell growth at 10 uM incubated for 48 hrs by sulforhodamine B assay relative to control; settings: read-out: Activity
[23] = system: HCC 2998; assay: Antiproliferative activity against human HCC 2998 cells assessed as cell growth at 10 uM incubated for 48 hrs by sulforhodamine B assay relative to control; settings: read-out: Activity
[24] = system: Hs-578T; assay: Antiproliferative activity against human Hs-578T cells assessed as cell growth at 10 uM incubated for 48 hrs by sulforhodamine B assay relative to control; settings: read-out: Activity
[25] = system: OVCAR-3; assay: Antiproliferative activity against human OVCAR-3 cells assessed as cell growth at 10 uM incubated for 48 hrs by sulforhodamine B assay relative to control; settings: read-out: Activity
[26] = system: NCI-H460; assay: Antiproliferative activity against human NCI-H460 cells assessed as cell growth inhibition measured after 72 hrs by crystal violet staining based assay; settings: NCI-H460, 72 h
[27] = system: TK-10; assay: Antiproliferative activity against human TK-10 cells assessed as cell growth at 10 uM incubated for 48 hrs by sulforhodamine B assay relative to control; settings: read-out: Activity
[28] = system: PC-3; assay: Antiproliferative activity against human PC-3 cells assessed as cell growth at 10 uM incubated for 48 hrs by sulforhodamine B assay relative to control; settings: read-out: Activity
[29] = system: SK-OV-3; assay: Antiproliferative activity against human SK-OV-3 cells assessed as cell growth at 10 uM incubated for 48 hrs by sulforhodamine B assay relative to control; settings: read-out: Activity
[30] = system: 786-0; assay: Antiproliferative activity against human 786-0 cells assessed as cell growth at 10 uM incubated for 48 hrs by sulforhodamine B assay relative to control; settings: read-out: Activity
[31] = system: NCI/ADR-RES; assay: Antiproliferative activity against human NCI/ADR-RES cells assessed as cell growth at 10 uM incubated for 48 hrs by sulforhodamine B assay relative to control; settings: read-out: Activity
[32] = system: SN12C; assay: Antiproliferative activity against human SN12C cells assessed as cell growth at 10 uM incubated for 48 hrs by sulforhodamine B assay relative to control; settings: read-out: Activity
[33] = system: SR; assay: Antiproliferative activity against human SR cells assessed as cell growth at 10 uM incubated for 48 hrs by sulforhodamine B assay relative to control; settings: read-out: Activity
[34] = system: NCI-H522; assay: Antiproliferative activity against human NCI-H522 cells assessed as cell growth at 10 uM incubated for 48 hrs by sulforhodamine B assay relative to control; settings: read-out: Activity
[35] = system: MOLT-4; assay: Antiproliferative activity against human MOLT-4 cells assessed as cell growth at 10 uM incubated for 48 hrs by sulforhodamine B assay relative to control; settings: read-out: Activity
[36] = system: A549; assay: Antiproliferative activity against human A549/ATCC cells assessed as cell growth at 10 uM incubated for 48 hrs by sulforhodamine B assay relative to control; settings: read-out: Activity
[37] = system: OVCAR-4; assay: Antiproliferative activity against human OVCAR-4 cells assessed as cell growth at 10 uM incubated for 48 hrs by sulforhodamine B assay relative to control; settings: read-out: Activity
[38] = system: SK-MEL-5; assay: Antiproliferative activity against human SK-MEL-5 cells assessed as cell growth at 10 uM incubated for 48 hrs by sulforhodamine B assay relative to control; settings: read-out: Activity
[39] = system: RPMI-8226; assay: Antiproliferative activity against human RPMI-8226 cells assessed as cell growth at 10 uM incubated for 48 hrs by sulforhodamine B assay relative to control; settings: read-out: Activity

Structure (SMILES) | growth at 10 µM [1] [%] | growth at 10 µM [2] [%] | growth at 10 µM [3] [%] | growth at 10 µM [4] [%] | growth at 10 µM [5] [%] | growth at 10 µM [6] [%] | growth at 10 µM [7] [%] | growth at 10 µM [8] [%] | growth at 10 µM [9] [%] | growth at 10 µM [10] [%] | growth at 10 µM [11] [%] | growth at 10 µM [12] [%] | growth at 10 µM [13] [%] | growth at 10 µM [14] [%] | growth at 10 µM [15] [%] | growth at 10 µM [17] [%] | growth at 10 µM [18] [%] | growth at 10 µM [19] [%] | growth at 10 µM [20] [%] | growth at 10 µM [21] [%] | other results
COc1cc(CNC(=O)CCCC/C=C/C(C)C)ccc1OCc1nnc(SCCc2c[nH]c3ccccc23)o1 | 50.2 | 68.8 | 71.3 | 86.7 | 94.9 | 102 | 70.6 | 51.8 | 104 | 84.7 | 45 | 40.7 | 77 | 80.8 | 70 | 73.3 | 80.5 | 58.8 | 73.7 | 88.7 | IC50 [16]: 13.4 µM; growth at 10 µM [22]: 69.7%; growth at 10 µM [23]: 98%; growth at 10 µM [24]: 81%; growth at 10 µM [25]: 88.3%; IC50 [26]: 9.89 µM; growth at 10 µM [27]: 91.7%; growth at 10 µM [28]: 56.9%; growth at 10 µM [29]: 85.7%; growth at 10 µM [30]: 89.3%; growth at 10 µM [31]: 56.5%; growth at 10 µM [32]: 83.1%; growth at 10 µM [33]: 49.3%; growth at 10 µM [34]: 59.4%; growth at 10 µM [35]: 29.2%; growth at 10 µM [36]: 79.4%; growth at 10 µM [37]: 71.7%; growth at 10 µM [38]: 105%
COc1cc(CNC(=O)CCCC/C=C/C(C)C)ccc1OCc1nnc(Nc2ccc([N+](=O)[O-])cc2)o1 | 101 | 64.9 | 25 | 71.9 | 62 | 101 | 67.1 | 53.8 | 78.9 | 67.3 | 58.7 | 59.6 | 54 | 70.2 | 24.6 | 56.8 | 48.6 | 55.2 | 53.5 | 54.9 | growth at 10 µM [39]: 52.3%; IC50 [16]: 8.55 µM; growth at 10 µM [22]: 71.7%; growth at 10 µM [23]: 83.6%; growth at 10 µM [24]: 63.2%; growth at 10 µM [25]: 77.3%; IC50 [26]: 5.41 µM; growth at 10 µM [27]: 84.1%; growth at 10 µM [28]: 37.6%; growth at 10 µM [29]: 11.8%; growth at 10 µM [30]: 22.2%; growth at 10 µM [31]: 79.6%; growth at 10 µM [32]: 49%; growth at 10 µM [33]: 64.2%; growth at 10 µM [34]: 73%; growth at 10 µM [35]: 84.2%; growth at 10 µM [36]: 49%; growth at 10 µM [37]: 11.2%; growth at 10 µM [38]: 46.3%
COc1cc(CNC(=O)CCCC/C=C/C(C)C)ccc1OCc1nnc(Nc2cccc(Br)c2)o1 | 79.8 | 84.2 | 98 | 105 | 89.8 | 91.1 | 78.3 | 48.1 | 107 | 95.4 | 64 | 65 | 99.5 | 88.4 | 67.6 | 77.8 | 102 | 83.7 | 92.9 | 98 | growth at 10 µM [39]: 70.3%; growth at 10 µM [22]: 97.7%; growth at 10 µM [23]: 101%; growth at 10 µM [24]: 93.7%; growth at 10 µM [25]: 88%; growth at 10 µM [27]: 104%; growth at 10 µM [28]: 87.9%; growth at 10 µM [29]: 82.6%; growth at 10 µM [30]: 95.6%; growth at 10 µM [31]: 87%; growth at 10 µM [32]: 95.7%; growth at 10 µM [33]: 67.7%; growth at 10 µM [34]: 68.6%; growth at 10 µM [35]: 83.5%; growth at 10 µM [36]: 95.4%; growth at 10 µM [37]: 85.1%; growth at 10 µM [38]: 89.8%
COc1cc(CNC(=O)CCCC/C=C/C(C)C)ccc1OCc1nnc(Nc2ccccc2F)o1 | 89.7 | 48 | 45.2 | 111 | 88.7 | 77.7 | 63.9 | 58.9 | 85.2 | 98.9 | 52.8 | 60.4 | 58.5 | 48.2 | 53.5 | 92.5 | 84 | 66.9 | 58.4 | 86.1 | growth at 10 µM [39]: 64.9%; IC50 [16]: 10.5 µM; growth at 10 µM [22]: 90%; growth at 10 µM [23]: 90.8%; growth at 10 µM [24]: 83.7%; growth at 10 µM [25]: 68.3%; IC50 [26]: 14.4 µM; growth at 10 µM [27]: 97.7%; growth at 10 µM [28]: 72.5%; growth at 10 µM [29]: 48.6%; growth at 10 µM [30]: 12%; growth at 10 µM [31]: 43.4%; growth at 10 µM [32]: 70.5%; growth at 10 µM [33]: 67.3%; growth at 10 µM [34]: 60.3%; growth at 10 µM [35]: 82%; growth at 10 µM [36]: 105%; growth at 10 µM [37]: 0.69%; growth at 10 µM [38]: 86.6%
